According to US20160184271A1, “Amino Acid Composition for Use in the Treatment of a PDD” (N.V. Nutricia, priority 2013, published 2016):

Target: mTOR (Homo sapiens, UniProt P42345)
Assay: in vitro effect of amino acids on mTOR
Assay type: biochemical
Details: for effect on mTOR (inhibitory or activating): in vitro

| Structure (SMILES) | effect on mTOR (inhibitory or activating) | concentration having a comparable inhibitory effect on mTor (1 mM rapamycin compared with 10 mM lysine) [mM] |
| --- | --- | --- |
| N[C@@H](Cc1ccccc1)C(=O)O [Phenylalanine, phenylalanine] | inhibitory effect of mTOR |  |
| NCC(=O)O [glycine] | inhibitory effect of mTOR |  |
| CC[C@H](C)[C@H](N)C(=O)O [isoleucine] | mTOR activating effect |  |
| CC(C)C[C@H](N)C(=O)O [leucine] | mTOR activating effect |  |
| NCCCC[C@H](N)C(=O)O [lysine] |  | 10 |
| CC(C)[C@H](N)C(=O)O [valine] | mTOR activating effect |  |
